Earlier results, collected in PMC5281649 (European Journal of Nuclear Medicine and Molecular Imaging, 2016).

Key:
[1] = in vivo; cited from earlier work
[2] = parameters: method as in doi:10.1016/S0924-977X(99)80017-0; details: doses providing full blockade of the enzyme; cited from earlier work
[3] = cited from earlier work

| SMILES | Reason development not continued [1] | Effect on cognition and functionality in patients with AD [2] | Effect in 2-year trial in patients with moderate AD [3] | Long-term effect on cognition in patients with moderate-to-severe AD [3] |
| --- | --- | --- | --- | --- |
| NCCNC(=O)c1ccc(Cl)cn1 [lazabemide] | hepatotoxic liability | significant improvement in cognition and functionality |  |  |
| C#CCN(C)[C@H](C)Cc1ccccc1 [selegiline] |  |  | may delay functional deterioration and disease progression | no long-term benefit on cognition |
